Source: paper PMC5651048, “Differential Resistance Mechanisms to Glyphosate Result in Fitness Cost for Lolium perenne and L. multiflorum” (Frontiers in Plant Science, 2017)

Test system: T1, EPSPS (5-enolpyruvlshikimate-3-phosphate synthase), Golf biotypes
T1 construct: native enzyme in leaf extract, not purified to homogeneity
Test: EPSPS activity in leaf extract, phosphate release (EnzChek Phosphate Assay)
Assay type: biochemical, Lolium perenne
Conditions: S-Golf biotype; 0-1000 μM glyphosate; log-logistic fit; unit from Methods (table footnote with unit not in the material); read-out: EPSPS activity^c / I50
Description: EPSPS activity in leaf extract, phosphate release (EnzChek Phosphate Assay) on EPSPS (5-enolpyruvlshikimate-3-phosphate synthase), Golf biotypes

O=C(O)CNCP(=O)(O)O [glyphosate, N-phosphonomethyl glycine]
IC50: 3.2 ± 0.3 µM
